This is an account of results in PubChem BioAssay (NCI).

Among the test systems are A498 renal; DU-145 prostate; HCT-15 colon; HT29 colon; LOX IMVI melanoma; MCF7 breast; NCI-H226 lung; OVCAR-3 ovarian; RPMI-8226 leukemia; SNB-75 CNS.
Test in all cases: inhibition of tumour cell growth, NCI panel, 48 h

SMILES strings stand for the structures.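 How tested: cells in 96-well plates exposed to compound for 48 hours at five concentrations. GI50 = concentration required for 50% inhibition of growth. TGI denotes the concentration required for complete inhibition of growth.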

On to `O=C(c1ccc(N=Cc2ccccc2O)cc1)c1ccc(N=Cc2ccccc2O)cc1`, for which the TGI with A498 renal, in the assay with DU-145 prostate, with HCT-15 colon, with HT29 colon, in the assay on LOX IMVI melanoma and in the assay on MCF7 breast was more than 100 µM throughout. Further, the TGI in the assay on NCI-H226 lung, in the assay on OVCAR-3 ovarian, with RPMI-8226 leukemia and in the assay with SNB-75 CNS was more than 100 µM each time.

Turning to `CCOC(=O)N/N=C(/N)c1cccc([N+](=O)[O-])c1`, the TGI in the assay with A498 renal, with DU-145 prostate, in the assay on HCT-15 colon, in the assay on HT29 colon, in the assay on LOX IMVI melanoma and with MCF7 breast was more than 100 µM throughout. Further, the TGI with OVCAR-3 ovarian and in the assay with SNB-75 CNS was more than 100 µM throughout.

For the molecule `COc1ccc2ccccc2c1/C=C/C(=O)c1ccccc1`, the TGI is 10.9 µM with A498 renal; 8.89 µM in the assay with DU-145 prostate; more than 35.8 µM in the assay with HCT-15 colon; 12.4 µM with HT29 colon; 10.9 µM in the assay with LOX IMVI melanoma; 18.6 µM with MCF7 breast. For the same molecule, the TGI in the assay with NCI-H226 lung was found to be 11.1 µM; in the assay with OVCAR-3 ovarian, 7.23 µM; in the assay on RPMI-8226 leukemia, 4.07 µM; in the assay on SNB-75 CNS, 4.01 µM.

For `O=C(N/N=C\c1cccc2c([N+](=O)[O-])cccc12)Nc1ccccc1`, the TGI amounted to 33.4 µM in the assay with A498 renal; 66.1 µM with DU-145 prostate; 25.5 µM with HCT-15 colon; 34.7 µM with HT29 colon; 25.4 µM with LOX IMVI melanoma; 26.7 µM in the assay with MCF7 breast. Also, the TGI is 31.2 µM with NCI-H226 lung, 29.4 µM in the assay on OVCAR-3 ovarian, 44 µM in the assay with RPMI-8226 leukemia and more than 100 µM in the assay on SNB-75 CNS.

As for `C(=Nc1ccc(-c2nc3ccccc3[nH]2)cc1)c1cccs1`, the TGI in the assay on A498 renal, in the assay with DU-145 prostate, in the assay on HCT-15 colon, with HT29 colon, with LOX IMVI melanoma and in the assay with MCF7 breast was more than 100 µM in each case. Besides, the TGI in the assay with NCI-H226 lung, in the assay with OVCAR-3 ovarian, in the assay on RPMI-8226 leukemia and in the assay on SNB-75 CNS was more than 100 µM in each case.

For the molecule `CC(=O)OC(/C=C/c1ccccc1)=C(OC(C)C)/C1=C(\c2ccccc2)SCCCSC1=O`, the TGI with A498 renal, in the assay with DU-145 prostate, with HCT-15 colon, in the assay with HT29 colon, in the assay with LOX IMVI melanoma and with MCF7 breast was more than 100 µM in each case. The TGI in the assay on NCI-H226 lung, in the assay with OVCAR-3 ovarian, in the assay with RPMI-8226 leukemia and with SNB-75 CNS was more than 100 µM in each case.

Take `CC(C)(C)OC(=O)NC(Cc1ccc(OCc2ccccc2)cn1)C(=O)N1CCCCC1` (stereo not given): the TGI with A498 renal was more than 100 µM; in the assay on DU-145 prostate, more than 100 µM; in the assay with HCT-15 colon, more than 100 µM; in the assay with HT29 colon, more than 100 µM; in the assay with LOX IMVI melanoma, 71 µM; in the assay on MCF7 breast, more than 100 µM. The values for the TGI in the assay on OVCAR-3 ovarian, in the assay with RPMI-8226 leukemia and in the assay on SNB-75 CNS were more than 100 µM, 52.7 µM and 70.3 µM, respectively.

Regarding `C[C@]12CCC(=O)O[C@H]1CCCCO2`, the TGI in the assay on A498 renal, with DU-145 prostate, in the assay with HCT-15 colon, with HT29 colon, with LOX IMVI melanoma and with MCF7 breast was more than 100 µM in each case. Further, the TGI in the assay with NCI-H226 lung, with OVCAR-3 ovarian and with SNB-75 CNS was more than 100 µM in each case.

Regarding `O=C(O)c1ccc([N+](=O)[O-])c2cc3cnccc3nc12`, the TGI with A498 renal was more than 100 µM; in the assay on DU-145 prostate, more than 100 µM; in the assay on HCT-15 colon, 45 µM; in the assay with HT29 colon, 57.3 µM; with MCF7 breast it was 38.7 µM; in the assay with NCI-H226 lung, 61.6 µM. The TGI is 36.4 µM in the assay with OVCAR-3 ovarian, more than 100 µM in the assay with RPMI-8226 leukemia and 34.2 µM in the assay with SNB-75 CNS.

Turning to `Nc1nc(N)c2ncn(-c3ccc(Cl)cc3)c2n1`, the TGI in the assay with A498 renal was 83.5 µM; in the assay on DU-145 prostate it was more than 100 µM; with HCT-15 colon, more than 100 µM; in the assay with HT29 colon, more than 100 µM; in the assay on LOX IMVI melanoma, more than 100 µM; in the assay on MCF7 breast, more than 100 µM. In addition, the TGI was more than 100 µM in the assay on NCI-H226 lung, more than 100 µM in the assay on OVCAR-3 ovarian and 59.1 µM in the assay with SNB-75 CNS.

On to `CNc1ccc(C(=O)CC(O)CCC(C)C2OC(=O)CC(O)CC(=O)CC(O)CC(O)CC(O)CC(O)CC3(O)CC(O)C(C(=O)OC)C(CC(O[C@@H]4O[C@H](C)[C@@H](O)[C@H](N)[C@@H]4O)/C=C/C=C/C=C/C=C/C=C/C=C/C=C/C2C)O3)cc1` (stereo not given in full), for which the GI50 was 1.23 µM in the assay on A498 renal; 1.85 µM in the assay with DU-145 prostate; 4.9 µM with HCT-15 colon; 3.63 µM in the assay on HT29 colon; 3.3 µM in the assay on LOX IMVI melanoma; 3.18 µM in the assay on MCF7 breast. In addition, the GI50 in the assay on OVCAR-3 ovarian was 2.73 µM; in the assay with RPMI-8226 leukemia it was 3.57 µM; in the assay on SNB-75 CNS, 2.83 µM. The TGI with A498 renal was 2.89 µM; with DU-145 prostate it was 3.55 µM; in the assay on HCT-15 colon it was more than 100 µM; in the assay with HT29 colon, 24.7 µM; in the assay with LOX IMVI melanoma, more than 100 µM; with MCF7 breast, 19 µM. Further, the TGI worked out at 6.26 µM with OVCAR-3 ovarian, 54.5 µM in the assay on RPMI-8226 leukemia and 30.8 µM in the assay on SNB-75 CNS.

In the case of `O=C1C=CC[C@H]2O[C@@H](COC(=O)Cc3ccccc3)C[C@H]2O1`, the TGI with A498 renal is more than 100 µM; in the assay with DU-145 prostate, more than 100 µM; with HCT-15 colon it was 45.7 µM; in the assay with HT29 colon it was 71.7 µM; with MCF7 breast, more than 100 µM; with NCI-H226 lung it was more than 100 µM. For the same molecule, the TGI in the assay with OVCAR-3 ovarian is more than 100 µM; with RPMI-8226 leukemia, more than 100 µM; in the assay on SNB-75 CNS it was 77.2 µM.

Consider `COC[C@@H](C[C@H]1O[C@@](O)([C@H](O)[C@@H]2C[C@H](OC)[C@@H](O)CC/C=C(C)/C=C/[C@@H](O[C@@H]3O[C@@H](C)[C@H](OC)[C@@H](O)[C@@H]3O)[C@H](C)/C=C(C)/C=C(C)/C=C(\C)C(=O)O2)[C@H](C)[C@@H](O)[C@H]1C)O[C@H]1C[C@](C)(O)[C@@H](O[C@H]2C[C@@H](OC)[C@H](O)[C@@H](C)O2)C(C)O1` (stereo not given in full), for which the TGI in the assay on A498 renal, in the assay on DU-145 prostate, in the assay on HCT-15 colon, in the assay on HT29 colon, with LOX IMVI melanoma and in the assay with MCF7 breast was more than 100 µM throughout. The TGI in the assay with NCI-H226 lung, in the assay with OVCAR-3 ovarian and with RPMI-8226 leukemia was more than 100 µM each time.
